Read-outs that look alike come from different tables or passages of the source.
Columns and labels:
[1] = In vitro cytotoxicity against murine macrophages (alamarBlue); format: cell-based; settings: mouse
Experimental: (§1) For cytotoxicity assays, a murine cell line macrophage J774A.1 (ATCC TIB-67) was used, maintained in the Dulbecco’s modified Eagle’s medium (DMEM, w/v) supplemented with 10% (v/v) FBS and 10 μg/mL gentamicin (Sigma-Aldrich, Madrid, Spain), incubated at 37 °C in a 5% CO2 atmosphere.
(§2) In this assay, a murine macrophage cell line J774A.1 (ATCC TIB-67) was used. Serial dilutions of the compounds were added and, subsequently, the alamarBlue reagent as described in previous studies[51] was also placed. Once the plates were read on the EnSpire Multimode Plate Reader (PerkinElmer, Madrid, Spain), the data were analyzed to obtain the cytotoxic concentration 50 (CC50). This CC50, together with the activity, was used to obtain the selectivity index for N. fowleri.

[2] = test system: N. fowleri ATCC 30215 trophozoites; experiment: In vitro activity against trophozoite stage (alamarBlue), strain ATCC 30215; format: cell-based; settings: Naegleria fowleri, ATCC30215, 48 h incubation
[3] = test system: N. fowleri ATCC 30808 trophozoites; experiment: In vitro activity against trophozoite stage (alamarBlue), strain ATCC 30808; format: cell-based, Naegleria fowleri; settings: for S.I. ATCC 30808 (selectivity index CC50/IC50): CC50 murine macrophages / IC50 N. fowleri ATCC 30808; for IC50 / IC90: Naegleria fowleri, ATCC30808, trophozoites, alamarBlue, 48 h incubation
[4] = test system: N. fowleri ATCC 30808 trophozoites; experiment: Actin filament depolymerization (phalloidin-TRITC); format: cell-based, Naegleria fowleri; settings: 24 h incubation with IC90, Z-stack imaging
Experimental: To evaluate the mechanisms of action of the compounds at the cellular level, a series of commercial kits were used according to the manufacturer’s instructions. To carry out the assays, the N. fowleri ATCC 30808 culture was previously incubated with the IC90 of the compounds evaluated for 24 h. Nontreated N. fowleri trophozoites were used as a negative control. […] Five images were processed each time at 40x and 100x objective lenses. The disassembly of cytoskeleton in treated amoebae can be analyzed by the red fluorescence emitted by phalloidin-TRITC when it binds to actin filaments. On the other hand, DAPI reagent was used which, in turn, binds to DNA and emits blue fluorescence, as already described in Acanthamoeba genus.[52] In this assay, amoebae were incubated with the IC90 of compounds. A 24-h incubation period was followed by the fixation of the cells with formaldehyde on a coverslip and the addition of 0.1% Triton before the addition of phalloidin-tetramethylrhodamine B isothiocyanate (phalloidin-TRITC; Sigma-Aldrich, Madrid, Spain) for another 30-min period. Finally, after incubation, the sample was washed with PBS. Cells were examined by Z-stack with a 100x objective of the EVOS FL Cell Imaging System AMF4300 (Life Technologies, Madrid, Spain).

[5] = test system: N. fowleri ATCC 30808 trophozoites; experiment: Chromatin condensation assay (Hoechst 33342/PI double stain); format: cell-based, Naegleria fowleri; settings: 24 h incubation with IC90
Experimental: (§3) To evaluate the mechanisms of action of the compounds at the cellular level, a series of commercial kits were used according to the manufacturer’s instructions. To carry out the assays, the N. fowleri ATCC 30808 culture was previously incubated with the IC90 of the compounds evaluated for 24 h. Nontreated N. fowleri trophozoites were used as a negative control. […] Five images were processed each time at 40x and 100x objective lenses.
A double-stain apoptosis detection kit (Hoechst 33342/PI) (Life Technologies, Madrid, Spain) was used to evaluate DNA condensation based on the fluorescent detection for chromatin compaction in apoptotic cells, and the assay offers a rapid and convenient apoptosis detection. As soon as the amoebae have been incubated for 24 h with the active compound’s IC90, Hoechst and propidium iodide (PI) are added at a final concentration of 5 and 1 μg/mL, respectively. Fluorescence should be observed after 15 min of incubation in the dark. In apoptotic cells, Hoechst 33342, a dye for blue fluorescence, stains the condensed chromatin more intensely than that in normal cells. PI emits red fluorescence (maximum excitation and emission wavelengths when bound to DNA of 535 and 617 nm, respectively), which can only be emitted through dead cells.

[6] = test system: N. fowleri ATCC 30808 trophozoites; experiment: ATP levels (CellTiter-Glo Luminescent Cell Viability Assay); format: cell-based, Naegleria fowleri; settings: 24 h incubation with IC90
Experimental: To evaluate the mechanisms of action of the compounds at the cellular level, a series of commercial kits were used according to the manufacturer's instructions. To carry out the assays, the N. fowleri ATCC 30808 culture was previously incubated with the IC90 of the compounds evaluated for 24 h. Nontreated N. fowleri trophozoites were used as a negative control. […] Five images were processed each time at 40x and 100x objective lenses. In order to measure the amount of ATP produced, Cell […]-GLO Luminescent Cell Viability assay (Promega Biotech Ibérica, Madrid, Spain) was used. With this kit, it is possible to compare the ATP production of treated cells to that of nontreated (negative control). ATP levels were evaluated by luminescent analysis using an EnSpire Multimode Plate Reader (Perkin Elmer, Madrid, Spain) following incubation with IC90 of selected compounds at 37 °C for 24 h.

[7] = test system: N. fowleri ATCC 30808 trophozoites; experiment: Mitochondrial membrane potential disruption (JC-1); format: cell-based, Naegleria fowleri; settings: 24 h incubation with IC90
Experimental: as §3
To determine the potential of the mitochondrial membrane was use the dye JC-1 (1,1′,3,3′-tetraethyl-5,5′,6,6′-tetrachloroimidacarbocyanine iodide) (Cayman Chemicals Vitro SA, Madrid, España). Once the amoebae were incubated for 24 h with the IC90 of the active compounds, 10 μL of JC-1 was added. […] The reagent fluoresces at two different wavelengths depending on the membrane potential. Under normal conditions, the monomers bind together to form J-aggregates (dimers) emitting red fluorescence at 595 nm.

[8] = test system: N. fowleri ATCC 30808 cysts; experiment: In vitro activity against cyst stage (alamarBlue); format: cell-based; settings: Naegleria fowleri, ATCC30808, read 24 h after adding reagent, read-out: Cysticidal activity, N. fowleri ATCC 30808 IC50
[9] = test system: N. fowleri ATCC 30808 trophozoites; format: cell-based, Naegleria fowleri; settings: not told
Experimental: as §3
The permeability of the plasma membrane can be analyzed using a green fluorescent dye called SYTOX Green (Life Technologies, Madrid, Spain). After the amoebae are incubated for 24 h with the IC90 of cyanomethyl vinyl ethers, SYTOX Green was added to a final concentration of 1 μM and after 15 min of incubation, cells were observed using Discover Echo Inc. Revolution Microscope (Discover Echo, San Diego, CA). The plasma membrane of the damaged cells will become permeable, giving the reagent the ability to enter through it. When inside the cell, it binds to the DNA and increases its fluorescence more than 500-fold, emitting green fluorescence at 523 nm.

[10] = test system: N. fowleri ATCC 30808 trophozoites; experiment: Oxidative stress / ROS detection (CellROX Deep Red); format: cell-based, Naegleria fowleri; settings: 24 h incubation with IC90
Experimental: To evaluate the mechanisms of action of the compounds at the cellular level, a series of commercial kits were used according to the manufacturer’s instructions. To carry out the assays, the N. fowleri ATCC 30808 culture was previously incubated with the IC90 of the compounds evaluated for 24 h. Nontreated N. fowleri trophozoites were used as a negative control. […] Five images were processed each time at 40x and 100x objective lenses. In this assay, the oxidative stress produced in the pathogen by the generation of oxygen free radicals is evaluated. The CellROX Deep Red kit (Invitrogen, Thermo Fisher Scientific, Madrid, Spain) was used in amoebae incubated for 24 h with the IC90 of the compounds to be tested. The reagent was used at a final concentration of 5 μM and incubated for 30 min. After this time, the action of the reagent was observed using the Discover Echo Inc. Revolution Microscope (Discover Echo, San Diego, CA). As a result of the overproduction of reactive oxygen species (ROS), this dye has the ability to penetrate the cells and emit red fluorescence at a wavelength of ∼644/665 nm.

[11] = test system: murine macrophage cell line J774A.1 (ATCC TIB-67); experiment: In vitro cytotoxicity against murine macrophages (alamarBlue); format: cell-based; settings: mouse
Experimental: as §1, §2

[12] = Murine macrophages J774.A1 CC50
[13] = J774A.1 macrophage cell line (ATCC TIB-67), alamarBlue, read-out: Murine macrophages J774.A1 CC50

Structure (SMILES) | CC50 [1, 12] [µM] | IC50 [2] [µM] | S.I. ATCC 30808 (selectivity index CC50/IC50) [3] | IC50 [3] [µM] | IC90 [3] [µM] | Actin filaments (phalloidin-TRITC fluorescence) [4] | Chromatin condensation (Hoechst 33342 blue fluorescence) [5] | Propidium iodide red fluorescence [5] | Decrease in ATP levels compared to the negative control [6] [%] | Mitochondrial membrane potential (JC-1 fluorescence) [7] | IC50 [8] [µM] | Plasma membrane permeability (SYTOX Green fluorescence) [9] | Intracellular ROS generation (CellROX Deep Red fluorescence) [10] | CC50 [11] [µM] | CC50 [1, 13] [µM]
COC(=O)/C=C/OC(C#N)c1ccc(F)cc1 (centres unmarked) [QOET-79] | > 425 | 54.3 ± 7.4 | >10 | 43.3 ± 5.69 | 119 ± 26 |  |  |  |  |  |  |  |  |  | 
COC(=O)/C=C/OC(C#N)c1ccccc1C (centres unmarked) [QOET-77] | > 394 | 42.7 ± 8.5 | >10 | 39.2 ± 6.3 | 117 ± 26.1 | only low red fluorescence was detected | condensation was observed | late apoptosis phase | 86.28 | disruption in the mitochondrial membrane potential | 102 ± 7.01 | show green fluorescence | increase of the intracellular ROS generation |  | 
COC(=O)/C=C\OC(C#N)c1ccc(C)c(C)c1 (centres unmarked) [QOET-72] | > 408 | 50.1 ± 4.9 | >7 | 47.7 ± 4.1 | 185 ± 7.05 | bright red fluorescence region related to actin depolymerization | condensation was observed |  | 90.25 | disruption in the mitochondrial membrane potential | 130 ± 22.8 | show green fluorescence | increase of the intracellular ROS generation |  | 
COC(=O)/C=C/OC(C#N)c1ccc(C)cc1 (centres unmarked) [QOET-59] | > 800 | 44.5 ± 0.48 | >20 | 42.3 ± 6.44 | 77.2 ± 11.8 | bright red fluorescence region related to actin depolymerization | condensation was observed |  | 98.49 | disruption in the mitochondrial membrane potential | 93.6 ± 17.5 | show green fluorescence | increase of the intracellular ROS generation | > 865 | 
C[C@@H]1[C@H](O)[C@@H](C)/C=C/C=C/C=C/C=C/C=C/C=C/C=C/[C@H](O[C@@H]2O[C@H](C)[C@@H](O)[C@H](N)[C@@H]2O)C[C@@H]2O[C@](O)(C[C@@H](O)C[C@@H](O)[C@H](O)CC[C@@H](O)C[C@@H](O)CC(=O)O[C@H]1C)C[C@H](O)[C@H]2C(=O)O [Amphotericin B, reference compound] |  | 0.16 ± 0.02 | ≥1652.89 | 0.12 ± 0.03 | 0.35 ± 0.02 |  |  |  |  |  |  |  |  |  | ≥ 200
COC(=O)/C=C/OC(C#N)c1ccccc1 (centres unmarked) [QOET-51] | 709 ± 67.1 | 68.5 ± 2.16 | 14.23 | 49.9 ± 3.04 | 173 ± 17.2 |  |  |  |  |  |  |  |  |  | 
CCCCCCCCCCCCCCCCOP(=O)([O-])OCC[N+](C)(C)C [Miltefosine, miltefosine, reference compound] |  | 81.6 ± 7.23 | 3.30 | 38.7 ± 4.23 | 89.5 ± 17.4 |  |  |  |  |  |  |  |  |  | 128 ± 8.85
COC(=O)/C=C\OC(C#N)c1ccc(C(F)(F)F)cc1 (centres unmarked) [QOET-64] | > 351 | 48.9 ± 0.81 | >9 | 38.8 ± 2.13 | 83.4 ± 9.47 |  |  |  |  |  |  |  |  |  | 
COC(=O)/C=C/OC(C#N)c1cc(OC)c(OC)c(OC)c1 (centres unmarked) [QOET-67] | > 325 | 121 ± 20.7 | >6 | 48.3 ± 10.5 | 154 ± 15.3 |  |  |  |  |  |  |  |  |  | 

Reference: article PMC10251482, “Cyanomethyl Vinyl Ethers Against Naegleria fowleri” (ACS Chemical Neuroscience, 2023)
